Experimental data: ChEMBL document CHEMBL1201862, “PubChem BioAssay data set” (2004)
Active and inactive are the calls of the source.

Tests used:
[1] = molecular target: T1, High affinity choline transporter 1 (Homo sapiens, UniProt Q9GZV3); assay: human choline transporter blockers, potency – cell-based, 5-point CRC, membrane potential dye, dose response (AID 504840); assay type: functional
T1 sequence (Q9GZV3 whole entry): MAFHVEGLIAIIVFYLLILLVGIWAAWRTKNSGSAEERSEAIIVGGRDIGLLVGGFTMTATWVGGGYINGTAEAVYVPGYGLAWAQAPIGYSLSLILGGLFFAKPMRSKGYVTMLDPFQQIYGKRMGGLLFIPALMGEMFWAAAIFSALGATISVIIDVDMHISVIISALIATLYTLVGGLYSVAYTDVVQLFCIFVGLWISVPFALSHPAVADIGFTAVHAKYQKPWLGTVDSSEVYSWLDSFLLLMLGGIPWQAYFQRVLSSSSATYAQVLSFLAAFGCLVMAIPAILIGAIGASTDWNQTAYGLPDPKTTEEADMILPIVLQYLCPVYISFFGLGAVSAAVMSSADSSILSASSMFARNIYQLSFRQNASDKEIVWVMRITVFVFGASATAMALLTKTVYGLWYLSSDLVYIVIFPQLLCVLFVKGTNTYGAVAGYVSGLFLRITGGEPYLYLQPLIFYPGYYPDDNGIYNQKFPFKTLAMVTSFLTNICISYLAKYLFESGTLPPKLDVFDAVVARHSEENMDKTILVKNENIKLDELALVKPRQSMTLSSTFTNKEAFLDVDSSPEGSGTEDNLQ

[2] = molecular target: T1, High affinity choline transporter 1; assay: human choline transporter blockers, potency – cell-based, 10-point CRC, membrane potential dye, dose response (AID 588401); assay type: functional;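 further: membrane potential dye fluorescence of choline-evoked depolarization via CHT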
[3] = viability of PTEN-deleted HCT116 cells – cell-based, HCT116 PTEN knockout, dose response (AID 1047); assay type: functional;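 further: HCT116 colon tumor cells with PTEN knocked out; cells exposed to compound for 60 hours before readout; potency for loss of cell viability measured by luminescence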
[4] = viability of HCT116 lacking mutant beta-catenin – cell-based, human colon tumor, dose response (AID 1045); assay type: functional;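 further: HCT116 colon tumor cells with beta catenin knocked out; cells exposed to compound for 60 hours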
Vero = assay: cells; assay type: functional; details: Chlorocebus sabaeus
[5] = molecular target: Voltage-dependent T-type calcium channel subunit alpha-1H (Homo sapiens, UniProt O95180); assay type: functional;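 further: channel activity triggered by adding a high calcium stimulation buffer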
H9c2 = assay: cells; assay type: functional, cell-based; details: Rattus norvegicus, H9c2, Myocardium;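 further: confirmatory concentration-response retest of ultra-high-throughput screening hits for modulation of myocardial damage; cell death induced by hydrogen peroxide oxidative stress; compound pretreatment for 60 min then peroxide exposure for 2 h; potency is for protecting the cells against peroxide damage rather than for killing them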
Cytochrome P450 2C9 = Cytochrome P450 2C9 (Homo sapiens, UniProt P11712)
[6] = molecular target: T2, Short transient receptor potential channel 4 (Mus musculus, UniProt Q9QUQ5); assay: calcium entry via TRPC4 opening agents – cell-based, HEK293 TRPC4/mu-opioid, Fluo-4 calcium, dose response (AID 434937); assay type: functional
T2 sequence (Q9QUQ5 whole entry): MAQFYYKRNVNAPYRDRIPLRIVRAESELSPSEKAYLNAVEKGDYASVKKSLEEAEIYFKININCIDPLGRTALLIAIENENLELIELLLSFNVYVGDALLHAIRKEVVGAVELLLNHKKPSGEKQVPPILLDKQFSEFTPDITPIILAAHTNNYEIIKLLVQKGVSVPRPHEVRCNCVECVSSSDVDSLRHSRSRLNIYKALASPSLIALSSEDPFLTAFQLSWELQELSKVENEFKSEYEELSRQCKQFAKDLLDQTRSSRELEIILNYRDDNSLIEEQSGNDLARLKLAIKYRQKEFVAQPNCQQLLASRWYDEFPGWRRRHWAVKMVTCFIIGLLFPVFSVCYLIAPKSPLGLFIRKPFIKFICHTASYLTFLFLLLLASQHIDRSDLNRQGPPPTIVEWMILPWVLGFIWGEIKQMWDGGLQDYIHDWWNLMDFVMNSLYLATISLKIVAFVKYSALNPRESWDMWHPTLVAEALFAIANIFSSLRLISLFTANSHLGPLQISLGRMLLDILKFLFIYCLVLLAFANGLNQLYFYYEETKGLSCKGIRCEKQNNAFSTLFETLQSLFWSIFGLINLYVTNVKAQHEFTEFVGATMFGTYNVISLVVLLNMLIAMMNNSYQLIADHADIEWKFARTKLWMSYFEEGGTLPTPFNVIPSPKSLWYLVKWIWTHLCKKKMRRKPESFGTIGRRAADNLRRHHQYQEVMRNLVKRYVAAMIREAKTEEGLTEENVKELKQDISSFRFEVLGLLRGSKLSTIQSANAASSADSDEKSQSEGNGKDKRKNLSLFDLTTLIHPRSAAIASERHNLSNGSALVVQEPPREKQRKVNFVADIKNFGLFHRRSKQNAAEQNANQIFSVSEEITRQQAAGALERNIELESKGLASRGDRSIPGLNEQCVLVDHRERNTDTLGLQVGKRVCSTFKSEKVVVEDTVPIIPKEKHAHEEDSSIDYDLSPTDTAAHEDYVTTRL

[7] = molecular target: T3, Calpain-2 catalytic subunit (Sus scrofa, UniProt P43367); assay: m-calpain protease blockers, concentration series – biochemical, fluorogenic peptide substrate, dose response (AID 1420); assay type: functional
T3 sequence (P43367 whole entry): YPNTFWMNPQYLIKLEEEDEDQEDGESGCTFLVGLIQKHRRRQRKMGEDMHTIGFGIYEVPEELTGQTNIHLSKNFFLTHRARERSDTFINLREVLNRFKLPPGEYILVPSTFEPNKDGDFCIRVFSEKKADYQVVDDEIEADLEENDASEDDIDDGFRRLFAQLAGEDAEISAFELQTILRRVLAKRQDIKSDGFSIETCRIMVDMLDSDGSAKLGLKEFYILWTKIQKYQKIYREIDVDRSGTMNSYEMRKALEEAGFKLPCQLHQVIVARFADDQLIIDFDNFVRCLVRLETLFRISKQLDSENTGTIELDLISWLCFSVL

[8] = Trypanosoma cruzi growth suppression in host cells – NIH3T3 host cells, beta-gal luminescence, confirmation (AID 2044); assay type: functional, cell-based;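 further: intracellular parasites grown in NIH/3T3 mouse fibroblasts as host cells; luminescent beta-galactosidase reporter signal from transgenic T. cruzi replicating inside host cells; inhibitors lower the luminescence signal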
[9] = NIH3T3 cell viability loss – ATP luminescence, mouse fibroblasts, counter-screen, dose response (AID 2010); assay type: functional, cell-based;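 further: cells exposed to compound for about 90 hours before reading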
[10] = molecular target: Luciferin 4-monooxygenase (Photinus pyralis, UniProt P08659); assay: inhibition of purified Photinus pyralis luciferase – biochemical, luminescence, dose response (AID 1891)
[11] = Luminescence Cell-Based Dose Confirmation HTS to Identify Inhibitors of Platelet Dense Granule Release. [Related pubchem assays: 1663 (Primary HTS), 1678 (Summary of Project)]; assay type: functional
[12] = viability of uninfected HEp-2 cells – cell-based, HTS, cytotoxicity control for RSV inhibitor project, dose response (AID 2410); assay type: functional; details: human respiratory syncytial virus
[13] = microbe, parasite or virus in culture; assay type: functional; details: Mycobacterium tuberculosis
[14] = Luminescence Cell-Based Dose Response HTS to Identify Activators of Luciferase Translation or Activity in H4 […] Cells. [Related pubchem assays: 1829 (Project Summary), 1814 (Primary HTS)]; assay type: functional
H4 = assay: Luminescence Cell-Based Dose Response HTS to Identify Activators of 5'UTR Stem-Loop Driven Prion Protein mRNA Translation in H4 Neuroglioblastoma Cells. [Related pubchem assays: 1829 (Project Summary), 1814 (Primary HTS)]; assay type: functional; details: Homo sapiens
Cytochrome P450 3A4 = Cytochrome P450 3A4 (Homo sapiens, UniProt P08684);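 further: CYP3A4 tested as one member of a cytochrome P450 panel screen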
Chain of Cytochrome P450 3A4 (P08684 whole entry): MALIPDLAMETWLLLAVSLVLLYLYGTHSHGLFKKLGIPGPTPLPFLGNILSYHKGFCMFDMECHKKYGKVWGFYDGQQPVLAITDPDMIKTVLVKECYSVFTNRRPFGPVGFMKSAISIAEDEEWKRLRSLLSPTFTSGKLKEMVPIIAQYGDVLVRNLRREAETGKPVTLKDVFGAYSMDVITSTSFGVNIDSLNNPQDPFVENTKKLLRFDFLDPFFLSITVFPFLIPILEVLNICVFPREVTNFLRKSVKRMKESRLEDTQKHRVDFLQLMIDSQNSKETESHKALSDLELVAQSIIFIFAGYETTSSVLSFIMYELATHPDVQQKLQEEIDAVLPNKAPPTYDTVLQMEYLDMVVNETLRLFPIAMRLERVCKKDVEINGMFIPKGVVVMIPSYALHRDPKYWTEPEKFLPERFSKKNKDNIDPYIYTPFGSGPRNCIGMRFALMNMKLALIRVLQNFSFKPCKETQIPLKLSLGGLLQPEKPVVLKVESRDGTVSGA

Chain of Cytochrome P450 2C9 (P11712 whole entry): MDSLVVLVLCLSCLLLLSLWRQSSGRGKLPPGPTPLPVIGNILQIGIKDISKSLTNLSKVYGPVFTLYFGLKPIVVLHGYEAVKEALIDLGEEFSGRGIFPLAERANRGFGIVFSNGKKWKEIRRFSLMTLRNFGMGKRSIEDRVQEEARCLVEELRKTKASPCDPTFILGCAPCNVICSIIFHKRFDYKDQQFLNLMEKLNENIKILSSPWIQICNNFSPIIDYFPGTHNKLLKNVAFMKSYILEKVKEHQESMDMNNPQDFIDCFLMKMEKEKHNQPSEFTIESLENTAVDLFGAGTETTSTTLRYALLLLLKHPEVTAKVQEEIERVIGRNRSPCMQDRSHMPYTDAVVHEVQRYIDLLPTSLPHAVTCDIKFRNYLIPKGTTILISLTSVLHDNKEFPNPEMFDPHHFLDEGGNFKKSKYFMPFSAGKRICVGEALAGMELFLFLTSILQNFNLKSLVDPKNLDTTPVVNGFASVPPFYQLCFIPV
Chain of Voltage-dependent T-type calcium channel subunit alpha-1H (O95180 whole entry): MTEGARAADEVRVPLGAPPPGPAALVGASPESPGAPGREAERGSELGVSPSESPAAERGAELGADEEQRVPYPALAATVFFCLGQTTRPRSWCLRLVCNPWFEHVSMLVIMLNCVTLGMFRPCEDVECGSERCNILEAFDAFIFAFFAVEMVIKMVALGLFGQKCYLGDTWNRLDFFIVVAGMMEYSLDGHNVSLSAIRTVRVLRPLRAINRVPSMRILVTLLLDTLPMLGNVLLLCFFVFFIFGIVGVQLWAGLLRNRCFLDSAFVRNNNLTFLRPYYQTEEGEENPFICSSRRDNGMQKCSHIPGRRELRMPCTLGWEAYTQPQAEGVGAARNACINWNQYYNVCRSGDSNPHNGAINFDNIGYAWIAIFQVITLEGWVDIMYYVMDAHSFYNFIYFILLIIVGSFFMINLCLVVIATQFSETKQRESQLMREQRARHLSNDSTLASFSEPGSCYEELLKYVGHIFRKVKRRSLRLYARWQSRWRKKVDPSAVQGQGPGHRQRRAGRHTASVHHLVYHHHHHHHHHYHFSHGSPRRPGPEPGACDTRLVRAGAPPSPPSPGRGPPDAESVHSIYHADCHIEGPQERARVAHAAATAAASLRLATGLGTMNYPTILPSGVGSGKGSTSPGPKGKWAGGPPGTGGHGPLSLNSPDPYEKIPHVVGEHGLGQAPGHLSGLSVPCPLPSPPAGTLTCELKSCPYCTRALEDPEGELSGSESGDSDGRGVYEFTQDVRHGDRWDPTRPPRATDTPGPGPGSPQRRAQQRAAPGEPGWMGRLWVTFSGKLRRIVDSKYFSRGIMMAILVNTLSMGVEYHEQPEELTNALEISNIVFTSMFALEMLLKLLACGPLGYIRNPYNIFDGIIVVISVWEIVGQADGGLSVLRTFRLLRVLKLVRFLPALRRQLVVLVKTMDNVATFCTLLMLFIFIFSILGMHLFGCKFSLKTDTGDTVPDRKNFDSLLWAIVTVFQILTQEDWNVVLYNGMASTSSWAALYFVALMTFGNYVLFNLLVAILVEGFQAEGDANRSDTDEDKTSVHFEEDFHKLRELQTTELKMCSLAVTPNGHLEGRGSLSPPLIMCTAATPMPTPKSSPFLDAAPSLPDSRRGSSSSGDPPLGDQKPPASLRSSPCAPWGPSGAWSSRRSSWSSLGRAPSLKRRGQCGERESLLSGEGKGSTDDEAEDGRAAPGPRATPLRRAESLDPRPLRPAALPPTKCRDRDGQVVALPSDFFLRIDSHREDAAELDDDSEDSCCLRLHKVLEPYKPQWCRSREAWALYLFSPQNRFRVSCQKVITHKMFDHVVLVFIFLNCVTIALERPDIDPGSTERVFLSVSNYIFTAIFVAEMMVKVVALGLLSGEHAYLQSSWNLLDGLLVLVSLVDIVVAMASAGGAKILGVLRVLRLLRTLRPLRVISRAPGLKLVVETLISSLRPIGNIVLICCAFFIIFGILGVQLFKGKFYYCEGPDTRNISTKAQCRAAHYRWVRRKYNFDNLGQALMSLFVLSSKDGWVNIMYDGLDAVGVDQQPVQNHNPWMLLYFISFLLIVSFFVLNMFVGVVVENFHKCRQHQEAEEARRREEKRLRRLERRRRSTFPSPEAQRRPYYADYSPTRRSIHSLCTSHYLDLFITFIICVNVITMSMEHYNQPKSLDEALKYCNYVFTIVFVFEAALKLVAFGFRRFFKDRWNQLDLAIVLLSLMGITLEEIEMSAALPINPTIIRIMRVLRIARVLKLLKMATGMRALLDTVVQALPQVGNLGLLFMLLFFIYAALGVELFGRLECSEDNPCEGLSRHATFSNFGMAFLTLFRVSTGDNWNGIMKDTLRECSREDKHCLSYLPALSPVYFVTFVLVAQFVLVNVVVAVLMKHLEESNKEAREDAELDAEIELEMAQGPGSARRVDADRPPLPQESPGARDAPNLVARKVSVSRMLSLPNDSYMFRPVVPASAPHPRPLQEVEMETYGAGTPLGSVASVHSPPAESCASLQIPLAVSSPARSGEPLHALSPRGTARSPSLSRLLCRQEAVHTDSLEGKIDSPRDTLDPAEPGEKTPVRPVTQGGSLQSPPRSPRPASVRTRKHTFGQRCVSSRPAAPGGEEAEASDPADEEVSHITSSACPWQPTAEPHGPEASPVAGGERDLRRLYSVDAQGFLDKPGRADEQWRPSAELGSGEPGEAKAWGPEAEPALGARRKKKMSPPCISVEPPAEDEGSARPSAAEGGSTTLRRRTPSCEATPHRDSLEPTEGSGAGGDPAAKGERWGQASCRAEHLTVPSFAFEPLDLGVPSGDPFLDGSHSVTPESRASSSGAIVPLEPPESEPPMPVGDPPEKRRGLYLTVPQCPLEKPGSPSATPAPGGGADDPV
Chain of Luciferin 4-monooxygenase (P08659 whole entry): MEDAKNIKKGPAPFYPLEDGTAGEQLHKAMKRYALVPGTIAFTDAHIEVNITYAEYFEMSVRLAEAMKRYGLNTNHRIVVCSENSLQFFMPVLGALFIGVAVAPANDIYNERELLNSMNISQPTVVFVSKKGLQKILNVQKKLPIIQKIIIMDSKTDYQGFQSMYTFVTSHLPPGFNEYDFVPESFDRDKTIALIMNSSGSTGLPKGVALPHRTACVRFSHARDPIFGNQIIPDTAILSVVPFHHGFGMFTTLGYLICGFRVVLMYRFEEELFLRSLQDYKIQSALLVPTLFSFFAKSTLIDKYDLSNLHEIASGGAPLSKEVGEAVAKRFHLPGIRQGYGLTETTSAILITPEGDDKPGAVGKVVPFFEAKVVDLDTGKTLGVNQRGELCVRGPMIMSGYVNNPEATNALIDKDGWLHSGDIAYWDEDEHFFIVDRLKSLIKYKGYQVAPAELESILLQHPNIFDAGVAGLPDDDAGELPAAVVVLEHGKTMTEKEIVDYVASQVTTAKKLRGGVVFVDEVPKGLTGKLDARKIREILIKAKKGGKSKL

Question: Which IC50 [1] does the source give for `Cc1nccn1CC1CCc2c(c3ccccc3n2C)C1=O` (stereo not given) here?
Answer: 1.67 µM (active)

Question: And the IC50 [2]?
Answer: 1.35 µM (active)

Question: With `CCCc1n[nH]c2c1C(C1CC=CCC1)C(C#N)=C(N)O2` (stereo not given) as the compound, how does the EC50 [3] read?
Answer: 33.2 µM (active)

Question: And the EC50 [4]?
Answer: 139 µM (active)

Question: What about the CC50 (Vero) of the same compound?
Answer: > 25 µM (active)

Question: Which IC50 [1] does the source give for `O=C(Nc1ccccc1C(=O)NCCCn1ccnc1)c1ccccc1` here?
Answer: 5.59 µM (active)

Question: And the IC50 [2]?
Answer: 1.5 µM (active)

Question: With `Cc1ccccc1NS(=O)(=O)c1cc(C(=O)Nc2ccccc2-c2ccccc2)ccc1Cl` as the compound, how does the EC50 [5] read?
Answer: 3.95 µM (active)

Question: Which EC50 [5] does the source give for `Cc1ccc(SCCC(=O)NCCSCc2ccccc2C)cc1` here?
Answer: 2.87 µM (active)

Question: For `COc1ccccc1CN(Cc1nc(O)c2ccccc2n1)S(=O)(=O)c1ccc2ccccc2c1`, which EC50 [3] is on record?
Answer: 16.7 µM (active)

Question: What about the EC50 [4] of the same compound?
Answer: 17.4 µM (active)

Question: And the IC50 (H9c2)?
Answer: 20.5 µM (active)

Question: And the CC50 (Vero)?
Answer: > 25 µM (active)

Question: What does the source list for `Cn1c(=O)c(C#N)c(-c2ccc(F)cc2)c2cc(C(=O)c3cc(Cl)cc(Cl)c3O)cnc21`?
Answer: IC50 [1]: 6.95 µM (active); IC50 [2]: 7.08 µM (active)

Question: With `CN(C)c1nc(-c2ccccc2C(F)(F)F)nc2ccccc12` as the compound, how does the AC50 (Cytochrome P450 2C9) read?
Answer: inconclusive

Question: Which results are given for `COc1cc(OC)cc(C(=O)NC(=S)NNC(=O)[C@H]2C[C@@H]2c2ccccc2)c1`?
Answer: EC50 [6]: 2.99 µM (active); CC50 (Vero): 23.8 µM (active)

Question: Which results are given for `Cc1cccc(OCCCSc2nc3ccc(C)cc3[nH]2)c1`?
Answer: IC50 [7]: 24.9 µM (not active); EC50 [5]: 3.92 µM (active)

Question: What does the source list for `CC(C)(C)n1nnnc1C(c1cccs1)N(Cc1ccc(Cl)cc1)CC1CCCO1` (stereo not given)?
Answer: EC50 [8]: 2.41 µM (active); EC50 [9]: > 60 µM (not active); EC50 [5]: 8.19 µM (active)

Question: What does the source list for `Cc1sc[n+](CC(=O)c2ccc(Br)cc2)c1C`?
Answer: IC50 [1]: 8.46 µM (active); IC50 [2]: 3.76 µM (active)

Question: With `Cc1nn2c(NCCOCCO)c3c(nc2c1-c1ccccc1)CCCC3` as the compound, how does the IC50 [1] read?
Answer: 3.43 µM (active)

Question: What about the IC50 [2] of the same compound?
Answer: 11.2 µM (active)

Question: For `COc1cc(OC)cc(C(=O)NCCCN2CCN(CCCNC(=O)c3cc(OC)cc(OC)c3)CC2)c1`, which EC50 [10] is on record?
Answer: > 112 µM (not active)

Question: What about the EC50 [11] of the same compound?
Answer: > 112 µM (not active)

Question: And the EC50 [6]?
Answer: 0.188 µM (active)

Question: For `CCc1nnc(NS(=O)(=O)c2ccc(NC(=O)c3ccc(Br)cc3)cc2)s1`, which IC50 [1] is on record?
Answer: 4.45 µM (active)

Question: And the IC50 [2]?
Answer: 10 µM (active)

Question: What does the source list for `COC(=O)Cn1c(CN2CCN(c3ccc(F)cc3)CC2)nc2c1c(=O)n(C)c(=O)n2C`?
Answer: IC50 [1]: 3.59 µM (active); IC50 [2]: 1.15 µM (active)

Question: With `CCN(CC)S(=O)(=O)c1ccc2oc(C(=O)NCc3ccc(F)cc3)c(C)c2c1` as the compound, how does the EC50 [5] read?
Answer: 3.18 µM (active)

Question: Which CC50 [12] does the source give for `Cc1ccc(N2CCN(C(=O)CCc3nc4ccccc4[nH]3)CC2)c(C)c1` here?
Answer: 13.6 µM (active)

Question: What about the EC50 [5] of the same compound?
Answer: 3.27 µM (active)

Question: With `COc1cccc(NC(=O)C2CCN(Cc3cnn(-c4ccccc4)c3-n3cccc3)CC2)c1` as the compound, how does the CC50 [13] read?
Answer: 14.6 µM (active)

Question: And the EC50 [5]?
Answer: 2.29 µM (active)

Question: For `CN1C(=C2C(=O)OC(C)(C)OC2=O)Sc2ccccc21`, which EC50 [14] is on record?
Answer: 122 nM (active)

Question: What about the EC50 (H4) of the same compound?
Answer: > 120 µM (not active)

Question: What about the AC50 (Cytochrome P450 2C9) of the same compound?
Answer: inconclusive

Question: With `N=C(NC(=O)c1ccccc1)N1CCN(C(c2ccccc2)c2ccccc2)CC1` as the compound, how does the CC50 (Vero) read?
Answer: > 25 µM (active)

Question: For `Nc1ccc2c3c(cccc13)C(=O)NC2=O`, which AC50 (Cytochrome P450 3A4) is on record?
Answer: 3.16 µM (inconclusive)

Question: What about the AC50 (Cytochrome P450 2C9) of the same compound?
Answer: inconclusive
